Results from patent US20140275169A1, “Combination Therapies for Enhancing Protein Degradation” (The Regents of the University of Michigan, priority 2013, published 2014).

Key:
endogenous total tau = assay: Degradation of endogenous total tau in primary cortical rat neurons, SDS-PAGE immunoblot with tau-5 antibody; type: cell-based; settings: 24 hours, individual compounds (lanes 2 and 3) and combination (lane 4)
Method: These independently duplicated experiments were carried out in primary cortical rat neurons for 24 hours. Tau was detected after SDS-PAGE immunoblot analysis, using the tau-5 antibody.
The combined effect of Usp14 inhibitors and Hsp70 inhibitors on tau levels is shown to be synergistic in this experiment in that this effect (lane 4) is greater than the sum of the individual effects of these compounds (lanes 2 and 3). To cite one example, in FIG. 5A the individual effects are approximately 8% and 2% for Usp14 and Hsp70 inhibitors, respectively, while the combined effect is approximately 71%, far greater than the expected additive effect of approximately 10%.
This experiment was carried out in primary cortical rat neurons for 48 hours. Tau was detected after SDS-PAGE immunoblot analysis, using the tau-5 antibody.
This experiment was carried out in primary cortical rat neurons for 24 hours. Tau was detected after SDS-PAGE immunoblot analysis, using the tau-5 antibody.

Usp14 = Usp14 (Homo sapiens, UniProt P54578); assay: Inhibition of Usp14 (statement in overview); type: biochemical
Sequence of Usp14 (P54578 whole entry, species assumed): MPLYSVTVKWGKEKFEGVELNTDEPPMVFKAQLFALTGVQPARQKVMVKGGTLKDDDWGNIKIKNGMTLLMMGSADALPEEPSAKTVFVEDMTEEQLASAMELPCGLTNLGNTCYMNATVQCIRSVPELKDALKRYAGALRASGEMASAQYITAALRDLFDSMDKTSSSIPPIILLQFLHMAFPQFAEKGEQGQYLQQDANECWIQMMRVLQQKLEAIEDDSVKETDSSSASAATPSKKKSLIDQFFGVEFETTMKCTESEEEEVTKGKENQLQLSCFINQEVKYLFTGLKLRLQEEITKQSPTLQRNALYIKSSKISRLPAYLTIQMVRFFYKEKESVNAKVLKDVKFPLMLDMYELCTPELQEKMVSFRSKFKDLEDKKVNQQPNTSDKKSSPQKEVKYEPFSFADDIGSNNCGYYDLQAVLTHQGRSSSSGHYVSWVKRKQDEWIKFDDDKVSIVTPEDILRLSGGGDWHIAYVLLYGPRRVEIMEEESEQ

Row | Compound | effect on tau levels (FIG. 5A) (endogenous total tau) | Usp14 inhibition, qualitative (Usp14)
1 | Cc1cc(C(=O)CN2CCCCC2)c(C)n1-c1ccc(Cl)cc1 [IU1-47] | approximately 8% | more potent variant of IU1
2 | Cc1cc(C(=O)CN2CCCC2)c(C)n1-c1ccc(F)cc1 [IU1, 1-(1-(4-fluorophenyl)-2,5-dimethyl-1H-pyrrol-3-yl)-2-(pyrrolidin-1-yl)ethanone] |  | inhibitor of Usp14
